Test results from PubChem BioAssay (NCI).
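These data come from cells grown in 96-well plates and exposed to compound for 48 hours at five concentrations. TGI: concentration producing complete growth inhibition.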

Tests used:
Experiment in all cases: inhibition of tumour cell growth, NCI panel, 48 h
U251 CNS = test system: U251 CNS
HOP-62 NSCLC = test system: HOP-62 NSCLC
UO-31 renal = test system: UO-31 renal
HT29 colon = test system: HT29 colon
TK-10 renal = test system: TK-10 renal
CAKI-1 renal = test system: CAKI-1 renal
HOP-92 NSCLC = test system: HOP-92 NSCLC
MOLT-4 leukemia = test system: MOLT-4 leukemia
NCI-H23 lung = test system: NCI-H23 lung
SNB-19 CNS = test system: SNB-19 CNS
K-562 leukemia = test system: K-562 leukemia
SN12C renal = test system: SN12C renal
SK-OV-3 ovarian = test system: SK-OV-3 ovarian
NCI-H460 lung = test system: NCI-H460 lung
SK-MEL-5 melanoma = test system: SK-MEL-5 melanoma
CCRF-CEM leukemia = test system: CCRF-CEM leukemia
DU-145 prostate = test system: DU-145 prostate
SNB-75 CNS = test system: SNB-75 CNS
IGROV1 ovarian = test system: IGROV1 ovarian
HL-60(TB) leukemia = test system: HL-60(TB) leukemia
EKVX NSCLC = test system: EKVX NSCLC
MDA-MB-231 breast = test system: MDA-MB-231 breast
SK-MEL-28 melanoma = test system: SK-MEL-28 melanoma
UACC-62 melanoma = test system: UACC-62 melanoma
NCI-H226 lung = test system: NCI-H226 lung
HCC-2998 colon = test system: HCC-2998 colon
RPMI-8226 leukemia = test system: RPMI-8226 leukemia
COLO 205 colon = test system: COLO 205 colon
A498 renal = test system: A498 renal
HCT-116 colon = test system: HCT-116 colon
SW-620 colon = test system: SW-620 colon
HS 578T breast = test system: HS 578T breast
SF-268 CNS = test system: SF-268 CNS
KM12 colon = test system: KM12 colon
OVCAR-4 ovarian = test system: OVCAR-4 ovarian
MDA-MB-435 = test system: MDA-MB-435
T-47D breast = test system: T-47D breast
A549 NSCLC = test system: A549 NSCLC
PC-3 prostate = test system: PC-3 prostate
SK-MEL-2 melanoma = test system: SK-MEL-2 melanoma
UACC-257 melanoma = test system: UACC-257 melanoma
786-0 renal = test system: 786-0 renal
HCT-15 colon = test system: HCT-15 colon
LOX IMVI melanoma = test system: LOX IMVI melanoma
MDA-N = test system: MDA-N
RXF 393 renal = test system: RXF 393 renal
SR leukemia = test system: SR leukemia
ACHN renal = test system: ACHN renal
MALME-3M melanoma = test system: MALME-3M melanoma
SF-539 CNS = test system: SF-539 CNS
OVCAR-8 ovarian = test system: OVCAR-8 ovarian
NCI/ADR-RES ovarian = test system: NCI/ADR-RES ovarian
OVCAR-5 ovarian = test system: OVCAR-5 ovarian
SF-295 CNS = test system: SF-295 CNS
NCI-H522 lung = test system: NCI-H522 lung
BT-549 breast = test system: BT-549 breast

With `COc1ccc(N2C(=O)C(=O)N(c3ccc(N=Nc4ccccc4)cc3)C2=S)cc1` the TGI (U251 CNS) was 32.6 µM, the TGI (HOP-62 NSCLC) was 34.6 µM and the TGI (UO-31 renal) was 30.3 µM. It also gave a TGI (HT29 colon) of 37.1 µM, a TGI (TK-10 renal) of 50.4 µM and a TGI (CAKI-1 renal) of 47.2 µM. For the same compound, the TGI (HOP-92 NSCLC) was 31.7 µM, the TGI (MOLT-4 leukemia) was greater than 100 µM and the TGI (NCI-H23 lung) was 34.9 µM. The TGI (SNB-19 CNS) was 53.4 µM, the TGI (K-562 leukemia) was greater than 100 µM and the TGI (SN12C renal) was 33.2 µM. The TGI (SK-OV-3 ovarian) was 68.4 µM, the TGI (NCI-H460 lung) was 34.1 µM and the TGI (SK-MEL-5 melanoma) was 30.4 µM. It also gave a TGI (CCRF-CEM leukemia) greater than 100 µM, a TGI (DU-145 prostate) of 34.3 µM and a TGI (SNB-75 CNS) of 55.5 µM. The TGI (IGROV1 ovarian) was 31.3 µM, the TGI (HL-60(TB) leukemia) was greater than 100 µM and the TGI (EKVX NSCLC) was 37 µM. The TGI (MDA-MB-231 breast) was 41.5 µM, the TGI (SK-MEL-28 melanoma) was 41.2 µM and the TGI (UACC-62 melanoma) was 31.6 µM. It also gave a TGI (NCI-H226 lung) of 48.4 µM, a TGI (HCC-2998 colon) of 30.1 µM and a TGI (RPMI-8226 leukemia) greater than 100 µM. It also gave a TGI (COLO 205 colon) of 31.4 µM, a TGI (A498 renal) of 52.3 µM and a TGI (HCT-116 colon) of 35.2 µM. The TGI (SW-620 colon) was 32.6 µM, the TGI (HS 578T breast) was greater than 100 µM and the TGI (SF-268 CNS) was 44.4 µM. The TGI (KM12 colon) was 32.9 µM, the TGI (OVCAR-4 ovarian) was 37.7 µM and the TGI (MDA-MB-435) was 48.9 µM. It also gave a TGI (T-47D breast) of 45.1 µM, a TGI (A549 NSCLC) of 41.2 µM and a TGI (PC-3 prostate) of 33.8 µM. It also gave a TGI (SK-MEL-2 melanoma) of 35.1 µM, a TGI (UACC-257 melanoma) of 34.3 µM and a TGI (786-0 renal) of 35.5 µM. It also gave a TGI (HCT-15 colon) of 32.4 µM, a TGI (LOX IMVI melanoma) of 37.2 µM and a TGI (MDA-N) of 40.3 µM. For the same compound, the TGI (RXF 393 renal) was 32.4 µM, the TGI (SR leukemia) was greater than 100 µM and the TGI (ACHN renal) was 34.4 µM. For the same compound, the TGI (MALME-3M melanoma) was 33.8 µM, the TGI (SF-539 CNS) was 34.2 µM and the TGI (OVCAR-8 ovarian) was 35.6 µM. The TGI (NCI/ADR-RES ovarian) was 35.9 µM, the TGI (OVCAR-5 ovarian) was 44.6 µM and the TGI (SF-295 CNS) was 35.4 µM. For the same compound, the TGI (NCI-H522 lung) was 20.2 µM.
Work on `c1ccc2c(c1)Nc1cccc3c1c-2nc1ccccc13` yielded a TGI (UO-31 renal) of 2.83 µM, a TGI (MOLT-4 leukemia) of 1.78 µM and a TGI (SNB-19 CNS) greater than 100 µM. It also gave a TGI (K-562 leukemia) of 2.92 µM, a TGI (SN12C renal) of 2.79 µM and a TGI (BT-549 breast) greater than 100 µM. The TGI (CCRF-CEM leukemia) was 4.81 µM, the TGI (DU-145 prostate) was 2.6 µM and the TGI (HL-60(TB) leukemia) was 3.3 µM. For the same compound, the TGI (MDA-MB-231 breast) was 2.69 µM, the TGI (NCI-H226 lung) was greater than 100 µM and the TGI (RPMI-8226 leukemia) was 3.48 µM. The TGI (A498 renal) was greater than 100 µM, the TGI (HCT-116 colon) was 1.79 µM and the TGI (KM12 colon) was 3.44 µM. For the same compound, the TGI (T-47D breast) was 5.09 µM, the TGI (PC-3 prostate) was 2.43 µM and the TGI (MDA-N) was 2.05 µM. It also gave a TGI (SR leukemia) of 4.83 µM and a TGI (ACHN renal) of 2.01 µM.
